Experimental data published in ChEMBL document CHEMBL1201862, “PubChem BioAssay data set” (2004).
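Method: 48-hour compound exposure of cells in 96-well plates, five concentrations, linear interpolation of endpoints. At the GI50, growth is halved.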 Activity calls are given as the source filed them. Cut-off read from the data, not from the text of the source: active = GI50 up to about 1.1 µM and inactive = higher.

Tests used:
Experiment in all cases: NCI anticancer screen, dose series, 48 h
[1] = system: A498
[2] = system: SW-620
[3] = system: T47D
[4] = system: DLD-1
[5] = system: NCI/ADR-RES
[6] = system: HL-60
[7] = system: U-251
[8] = system: MCF7
[9] = system: M19-MEL
[10] = system: SF-539
[11] = system: SK-OV-3
[12] = system: LOX IMVI
[13] = system: RXF 393
[14] = system: MDA-MB-231
[15] = system: SN12C
[16] = system: Hs-578T
[17] = system: SF-295
[18] = system: K562
[19] = system: HCT-15
[20] = system: 786-0

| Structure (SMILES) | GI50 [1] | GI50 [2] | GI50 [3] | GI50 [4] | GI50 [5] | GI50 [6] | GI50 [7] | GI50 [8] | GI50 [9] | GI50 [10] | GI50 [11] | GI50 [12] | GI50 [13] | GI50 [14] | GI50 [15] | GI50 [16] | GI50 [17] | GI50 [18] | GI50 [19] [µM] | GI50 [20] |
| --- | --- | --- | --- | --- | --- | --- | --- | --- | --- | --- | --- | --- | --- | --- | --- | --- | --- | --- | --- | --- |
| O=S1(=O)NN=C(NCc2ccc(F)cc2)c2ccccc21 | > 100 µM (inactive) | > 79.3 µM (inactive) | > 100 µM (inactive) | 58.5 µM (inactive) | 65.2 µM (inactive) | 13.1 µM (inactive) | 33 µM (inactive) | > 100 µM (inactive) | 40.4 µM (inactive) | > 85.5 µM (inactive) | 50.6 µM (inactive) | 36.3 µM (inactive) | 34.9 µM (inactive) | > 100 µM (inactive) | > 100 µM (inactive) | 17.5 µM (inactive) | > 71.9 µM (inactive) | 21 µM (inactive) | > 64.1 | > 50.9 µM (inactive) |
| O=C(CC(=O)C1=CNc2ccccc2S1)C(=O)Nc1ccc(Cl)cc1 | > 50 µM (inactive) | > 50 µM (inactive) | – | > 50 µM (inactive) | – | > 34 µM (inactive) | > 50 µM (inactive) | – | > 50 µM (inactive) | > 50 µM (inactive) | > 50 µM (inactive) | > 50 µM (inactive) | > 50 µM (inactive) | – | > 50 µM (inactive) | – | > 50 µM (inactive) | > 24.3 µM (inactive) | > 50 | > 50 µM (inactive) |
| Cc1ccc(/N=N/c2c(C)nn(-c3ccccc3)c2C)c(Br)c1 | > 100 µM (inactive) | 70.8 µM (inactive) | – | 65.6 µM (inactive) | – | 6.84 µM (inactive) | 60.8 µM (inactive) | – | > 100 µM (inactive) | > 100 µM (inactive) | > 100 µM (inactive) | 53 µM (inactive) | 54 µM (inactive) | – | > 100 µM (inactive) | – | > 100 µM (inactive) | 27.3 µM (inactive) | 36 | > 100 µM (inactive) |
| CCCCCCCCCCCCCCCCc1c(O)nc(NC#N)nc1C(=O)OC | > 25 µM (inactive) | > 25 µM (inactive) | – | > 25 µM (inactive) | – | > 25 µM (inactive) | > 25 µM (inactive) | – | > 25 µM (inactive) | > 25 µM (inactive) | > 25 µM (inactive) | > 25 µM (inactive) | > 25 µM (inactive) | – | > 25 µM (inactive) | – | > 25 µM (inactive) | > 25 µM (inactive) | > 25 | > 25 µM (inactive) |
| O=C(Nc1nc2ncn(CCOC(=O)c3ccccc3)c2c(=S)[nH]1)c1ccccc1 | 95.7 µM (inactive) | > 100 µM (inactive) | – | > 100 µM (inactive) | – | > 100 µM (inactive) | 31.8 µM (inactive) | – | 50.4 µM (inactive) | 30.5 µM (inactive) | > 100 µM (inactive) | > 100 µM (inactive) | 18.6 µM (inactive) | – | > 100 µM (inactive) | – | 45 µM (inactive) | 60.8 µM (inactive) | > 100 | 62.5 µM (inactive) |
| CC1CN1c1c(C(=O)/C=C/c2ccc(Cl)cc2)c(-c2ccccc2)nn(C)c1=O (stereo not given) | 4.08 µM (inactive) | 2.44 µM (inactive) | – | 1.71 µM (inactive) | – | 2.23 µM (inactive) | 2.35 µM (inactive) | – | 3.14 µM (inactive) | 1.94 µM (inactive) | 2.59 µM (inactive) | 2.08 µM (inactive) | 3.01 µM (inactive) | – | 3.11 µM (inactive) | – | 3.96 µM (inactive) | 2.82 µM (inactive) | 1.82 | 2.81 µM (inactive) |
| NC1=NC2=c3ccccc3=C(c3cnccn3)C2(c2cnccn2)c2ccccc21 (stereo not given) | 18.2 µM (inactive) | > 100 µM (inactive) | – | > 100 µM (inactive) | – | 52.8 µM (inactive) | 98.9 µM (inactive) | – | > 100 µM (inactive) | 80.5 µM (inactive) | > 100 µM (inactive) | 64.4 µM (inactive) | > 100 µM (inactive) | – | > 100 µM (inactive) | – | 42.2 µM (inactive) | 66.5 µM (inactive) | > 100 | > 100 µM (inactive) |
| Cc1nc2c(nc1C)C(=O)C1=C(C2=O)C2C=CC1CC2 | 41.9 µM (inactive) | 2.74 µM (inactive) | – | 7.53 µM (inactive) | – | 1.44 µM (inactive) | 5.35 µM (inactive) | – | 1.75 µM (inactive) | 13.8 µM (inactive) | 40.3 µM (inactive) | 2.21 µM (inactive) | 6.79 µM (inactive) | – | 16.7 µM (inactive) | – | 11.7 µM (inactive) | 2.48 µM (inactive) | 15.1 | 11.9 µM (inactive) |
| CCCc1cc(-c2ccc(-c3cc(CCC)c(C=O)[nH]3)s2)[nH]c1C=O | > 69.5 µM (inactive) | > 55.8 µM (inactive) | 6.05 µM (inactive) | 44.5 µM (inactive) | 18.4 µM (inactive) | 4.3 µM (inactive) | 61.1 µM (inactive) | 64.3 µM (inactive) | 4.53 µM (inactive) | > 100 µM (inactive) | > 56.9 µM (inactive) | 5.89 µM (inactive) | 30.1 µM (inactive) | > 100 µM (inactive) | > 69.2 µM (inactive) | 41.2 µM (inactive) | 11.9 µM (inactive) | 5.48 µM (inactive) | 8.61 | 14.4 µM (inactive) |
| CC1=C(C)C(=O)c2c(cc3ccccn23)C1=O | 21.2 µM (inactive) | 19.2 µM (inactive) | – | > 10 µM (inactive) | – | 17.4 µM (inactive) | 14.1 µM (inactive) | – | 1.87 µM (inactive) | 20 µM (inactive) | 20 µM (inactive) | 5.14 µM (inactive) | 14.7 µM (inactive) | – | 13.7 µM (inactive) | – | 17.1 µM (inactive) | 27.5 µM (inactive) | 14.4 | 27.9 µM (inactive) |
| COc1ccccc1C(O)(c1ccccc1)C(O)(c1ccccc1)c1ccccc1OC (stereo not given) | > 100 µM (inactive) | > 100 µM (inactive) | – | > 100 µM (inactive) | – | 9.82 µM (inactive) | > 100 µM (inactive) | – | > 100 µM (inactive) | > 100 µM (inactive) | > 31.6 µM (inactive) | > 100 µM (inactive) | > 100 µM (inactive) | – | > 100 µM (inactive) | – | > 100 µM (inactive) | > 100 µM (inactive) | > 100 | > 100 µM (inactive) |
| NC(=S)N/N=C(\CCC(=O)Nc1ccccc1[N+](=O)[O-])CC(=O)c1ccco1 | 49.3 µM (inactive) | > 100 µM (inactive) | – | > 100 µM (inactive) | – | > 100 µM (inactive) | > 100 µM (inactive) | – | > 100 µM (inactive) | > 100 µM (inactive) | > 100 µM (inactive) | > 100 µM (inactive) | > 100 µM (inactive) | – | > 100 µM (inactive) | – | > 100 µM (inactive) | > 100 µM (inactive) | > 100 | > 100 µM (inactive) |
| COc1cc([C@@H]2c3cc4c(cc3[C@@H](OC(=O)c3cccc(N)c3)C3COC(=O)[C@@H]32)OCO4)cc(OC)c1O (stereo not given in full) | 0.649 µM (active) | 3.33 µM (inactive) | – | 12.3 µM (inactive) | – | 2.7 µM (inactive) | 5.85 µM (inactive) | – | 5.68 µM (inactive) | 0.621 µM (active) | 11.5 µM (inactive) | 4.47 µM (inactive) | 0.632 µM (active) | – | 3.42 µM (inactive) | – | 0.32 µM (active) | 2.02 µM (inactive) | 13.3 | 2.49 µM (inactive) |
| CN=[S+]([O-])(c1ccccc1)c1ccccc1 | > 100 µM (inactive) | > 100 µM (inactive) | – | > 100 µM (inactive) | – | > 100 µM (inactive) | > 100 µM (inactive) | – | > 100 µM (inactive) | > 100 µM (inactive) | > 100 µM (inactive) | > 100 µM (inactive) | > 100 µM (inactive) | – | > 100 µM (inactive) | – | > 100 µM (inactive) | > 100 µM (inactive) | > 100 | > 100 µM (inactive) |
